In the NIST ThermoML archive (doi:10.1016/j.jct.2019.04.010):

Assay: xn = mol fraction of the nth substance listed
Settings: 100 kPa, Liquid; for viscosity: Concentric cylinders viscometry; for mass density: Vibrating tube method

CCCCn1cc[n+](C)c1.O=[N+]([O-])[O-] [1-butyl-3-methylimidazolium nitrate] + CCC(C)O
Settings	mass density [kg/m3]	viscosity [mPa·s]
293.15 K, x1 = 0.0813	860.4	5.41
293.15 K, x1 = 0.1595	904.7	7.32
293.15 K, x1 = 0.2402	944.9	10.17
293.15 K, x1 = 0.35	991.2	15.43
293.15 K, x1 = 0.4403	1023.7	21.65
293.15 K, x1 = 0.5597	1060.8	33.63
293.15 K, x1 = 0.6503	1085.4	46.65
293.15 K, x1 = 0.7398	1107	65
293.15 K, x1 = 0.8502	1130.6	100.4
293.15 K, x1 = 0.9399	1147.7	156.4
293.15 K, x1 = 1	1158.3	223.54
298.15 K, x1 = 0.0813	856.7	4.47
298.15 K, x1 = 0.1595	901.2	6.12
298.15 K, x1 = 0.2402	941.3	8.37
298.15 K, x1 = 0.35	987.7	12.73
298.15 K, x1 = 0.4403	1020.3	17.92
298.15 K, x1 = 0.5597	1057.5	27.57
298.15 K, x1 = 0.6503	1082.1	38.2
298.15 K, x1 = 0.7398	1103.8	52.3
298.15 K, x1 = 0.8502	1127.6	79.2
298.15 K, x1 = 0.9399	1144.7	119
298.15 K, x1 = 1	1155.2	168.97
303.15 K, x1 = 0.0813	852.6	3.85
303.15 K, x1 = 0.1595	897.3	5.31
303.15 K, x1 = 0.2402	937.4	7.21
303.15 K, x1 = 0.35	984.1	10.87
303.15 K, x1 = 0.4403	1016.8	15.15
303.15 K, x1 = 0.5597	1054.2	22.92
303.15 K, x1 = 0.6503	1078.9	30.82
303.15 K, x1 = 0.7398	1100.8	41.3
303.15 K, x1 = 0.8502	1124.6	62.3
303.15 K, x1 = 0.9399	1141.8	92
303.15 K, x1 = 1	1152.3	125.36
308.15 K, x1 = 0.0813	848.6	3.32
308.15 K, x1 = 0.1595	893.3	4.58
308.15 K, x1 = 0.2402	933.6	6.25
308.15 K, x1 = 0.35	980.4	9.38
308.15 K, x1 = 0.4403	1013.3	12.93
308.15 K, x1 = 0.5597	1050.9	19.27
308.15 K, x1 = 0.6503	1075.7	25.57
308.15 K, x1 = 0.7398	1097.6	33.2
308.15 K, x1 = 0.8502	1121.7	48.8
308.15 K, x1 = 0.9399	1138.9	70.7
308.15 K, x1 = 1	1149.3	96.74
313.15 K, x1 = 0.0813	844.6	2.83
313.15 K, x1 = 0.1595	889.5	3.98
313.15 K, x1 = 0.2402	929.8	5.46
313.15 K, x1 = 0.35	976.9	8.16
313.15 K, x1 = 0.4403	1009.9	11.18
313.15 K, x1 = 0.5597	1047.7	16.39
313.15 K, x1 = 0.6503	1072.7	21.49
313.15 K, x1 = 0.7398	1094.7	28
313.15 K, x1 = 0.8502	1118.8	40
313.15 K, x1 = 0.9399	1136.1	56.6
313.15 K, x1 = 1	1146.5	75.12
318.15 K, x1 = 0.0813	840.2	2.44
318.15 K, x1 = 0.1595	885.3	3.47
318.15 K, x1 = 0.2402	925.8	4.81
318.15 K, x1 = 0.35	973.4	7.15
318.15 K, x1 = 0.4403	1006.6	9.72
318.15 K, x1 = 0.5597	1044.5	14.08
318.15 K, x1 = 0.6503	1069.6	18.26
318.15 K, x1 = 0.7398	1091.8	23.5
318.15 K, x1 = 0.8502	1116.1	33
318.15 K, x1 = 0.9399	1133.5	44.4
318.15 K, x1 = 1	1143.8	56.28
323.15 K, x1 = 0.0813	836	2.16
323.15 K, x1 = 0.1595	881.2	3.06
323.15 K, x1 = 0.2402	921.9	4.26
323.15 K, x1 = 0.35	969.7	6.32
323.15 K, x1 = 0.4403	1003.1	8.53
323.15 K, x1 = 0.5597	1041.3	12.21
323.15 K, x1 = 0.6503	1066.5	15.68
323.15 K, x1 = 0.7398	1088.9	19.7
323.15 K, x1 = 0.8502	1113.4	27.2
323.15 K, x1 = 0.9399	1130.9	36.6
323.15 K, x1 = 1	1141.2	45.17

CCCCn1cc[n+](C)c1.O=[N+]([O-])[O-] [1-butyl-3-methylimidazolium nitrate] + CCCC(C)O
Settings	mass density [kg/m3]	viscosity [mPa·s]
293.15 K, x1 = 0.0812	854	4.47
293.15 K, x1 = 0.1604	893.6	5.28
293.15 K, x1 = 0.2403	929.8	6.43
293.15 K, x1 = 0.3499	974.3	9.03
293.15 K, x1 = 0.4399	1007.1	12.56
293.15 K, x1 = 0.5604	1046.7	20.29
293.15 K, x1 = 0.6505	1073.3	30.81
293.15 K, x1 = 0.7405	1097.8	47.6
293.15 K, x1 = 0.8501	1124.9	83.3
293.15 K, x1 = 0.9396	1145.3	143.6
293.15 K, x1 = 1	1158.3	223.54
298.15 K, x1 = 0.0812	850.4	3.69
298.15 K, x1 = 0.1604	890.1	4.35
298.15 K, x1 = 0.2403	926.4	5.39
298.15 K, x1 = 0.3499	971.1	7.59
298.15 K, x1 = 0.4399	1004	10.53
298.15 K, x1 = 0.5604	1043.5	17.14
298.15 K, x1 = 0.6505	1070.3	25.47
298.15 K, x1 = 0.7405	1094.8	37.96
298.15 K, x1 = 0.8501	1122	63.4
298.15 K, x1 = 0.9396	1142.3	105.6
298.15 K, x1 = 1	1155.2	168.97
303.15 K, x1 = 0.0812	846.5	3.16
303.15 K, x1 = 0.1604	886.5	3.72
303.15 K, x1 = 0.2403	922.9	4.65
303.15 K, x1 = 0.3499	967.8	6.64
303.15 K, x1 = 0.4399	1000.7	9.14
303.15 K, x1 = 0.5604	1040.5	14.61
303.15 K, x1 = 0.6505	1067.4	21.35
303.15 K, x1 = 0.7405	1092.1	31.14
303.15 K, x1 = 0.8501	1119.3	50.3
303.15 K, x1 = 0.9396	1139.5	81.8
303.15 K, x1 = 1	1152.3	125.36
308.15 K, x1 = 0.0812	842.8	2.74
308.15 K, x1 = 0.1604	882.7	3.25
308.15 K, x1 = 0.2403	919.4	4.08
308.15 K, x1 = 0.3499	964.4	5.73
308.15 K, x1 = 0.4399	997.5	7.89
308.15 K, x1 = 0.5604	1037.4	12.37
308.15 K, x1 = 0.6505	1064.4	17.74
308.15 K, x1 = 0.7405	1089.1	25.35
308.15 K, x1 = 0.8501	1116.3	40
308.15 K, x1 = 0.9396	1136.5	63.4
308.15 K, x1 = 1	1149.3	96.74
313.15 K, x1 = 0.0812	838.8	2.3
313.15 K, x1 = 0.1604	879.2	2.8
313.15 K, x1 = 0.2403	916	3.55
313.15 K, x1 = 0.3499	961.2	5.05
313.15 K, x1 = 0.4399	994.4	6.97
313.15 K, x1 = 0.5604	1034.4	10.51
313.15 K, x1 = 0.6505	1061.4	14.75
313.15 K, x1 = 0.7405	1086.1	20.64
313.15 K, x1 = 0.8501	1113.4	31.9
313.15 K, x1 = 0.9396	1133.8	50
313.15 K, x1 = 1	1146.5	75.12
318.15 K, x1 = 0.0812	834.7	1.95
318.15 K, x1 = 0.1604	875.2	2.4
318.15 K, x1 = 0.2403	912.1	3.05
318.15 K, x1 = 0.3499	957.5	4.37
318.15 K, x1 = 0.4399	990.9	5.91
318.15 K, x1 = 0.5604	1031.1	8.91
318.15 K, x1 = 0.6505	1058.3	12.21
318.15 K, x1 = 0.7405	1083.2	17.09
318.15 K, x1 = 0.8501	1110.7	26.5
318.15 K, x1 = 0.9396	1131	40
318.15 K, x1 = 1	1143.8	56.28
323.15 K, x1 = 0.0812	830.7	1.66
323.15 K, x1 = 0.1604	871.4	1.99
323.15 K, x1 = 0.2403	908.7	2.49
323.15 K, x1 = 0.3499	954.3	3.56
323.15 K, x1 = 0.4399	987.9	4.81
323.15 K, x1 = 0.5604	1028.2	7.13
323.15 K, x1 = 0.6505	1055.5	9.68
323.15 K, x1 = 0.7405	1080.5	13.67
323.15 K, x1 = 0.8501	1108.1	21.47
323.15 K, x1 = 0.9396	1128.4	32.3
323.15 K, x1 = 1	1141.2	45.17
